Peptide text beside a SMILES is read from it. * marks the point of attachment. Stearoyl = CCCCCCCCCCCCCCCCCC(=O)*; Palmitoyl = CCCCCCCCCCCCCCCC(=O)*
Assays:
[1] = system: HXB2-mediated cell fusion (HL2/3 effector cells, TZM-b1 target cells); format: cell-based, HIV-1; conditions: HXB2-mediated cell fusion
Description: HIV-1 mediated cell fusion inhibition assay: the effector cells (HL2/3 cells) and target cells (TZM-b1 cells) were provided by the AIDS Reagent Program of National Institutes of Health (NIH) (catalog numbers: 1294 and 8129, respectively). The both cells were adherent cells and were cultured in a DMEM cell culture medium containing ampicillin/streptomycin double antibiotics and 10% fetal bovine serum (FBS). The TZM-b1 was first added to a 96-well cell culture plate (1×10^4 cells/well), and cultured overnight at 37° C. and 5% CO2. The test substance was diluted with the DMEM cell culture medium by 3 folds and mixed with HL2/3 effector cells (3×10^4 cells/well), then added to the TZM-b1 target cells, and further cultured for 6 hours to fully fuse. The activity of luciferase (relative fluorescence units, RLU) was then determined using a luciferase reporter gene kit from Promega company according to the instructions. The inhibition rate of each sample at each concentration was calculated, and the half effective inhibitory concentration (IC50 value) was calculated using GraphPad Prism Software 2.01.

[2] = pharmacokinetic analysis in SD rats; conditions: for level at 72 h / level at time molar at 72 h: both, SD, rat, serum, 6 mg/kg
Description: The pharmacokinetic parameters were calculated using a non-compartmental analysis model (NCA).

[3] = Figure 9
Source text: Table printed on a drawing sheet, Figure 9
First reader's note: Panel B of Figure 9; each value cell holds the value ± its error, and each column is one route of administration.

[4] = system: SHIV strain SF162P3; assay: therapeutic effect in monkey infection model; format: in vivo, Chinese rhesus monkeys
Description: Six adult Chinese rhesus monkeys (numbered A to F, half male and half female) were used in the test, and antibodies to SIV, herpesvirus B, and simian T-lymphotropic virus were determined to be negative. The SHIV strain SF162P3 was provided by the AIDS Reagent Program of NIH in the United States, and was amplified on peripheral blood mononuclear cells (PBMC) of the monkeys, and the TCID50 was determined. Monkeys were intravenously inoculated with 1,000 TCID50 of the SF162P3 virus, and changes in plasma viral load (RNA copy number/ml) in the monkeys were measured periodically. […] The plasma samples were isolated from monkey bloods collected at predetermined time points and the plasma viral load (RNA copy number/ml) was determined by quantitative real-time reverse transcription-polymerase chain reaction (qRT-PCR). The plasma RNA was extracted by a conventional method and cDNA samples were synthesized by reverse transcription reaction. […] The PCR device used was PE AB17500. The sensitivity of the assay was 100 RNA copies per milliliter of plasma sample.

Compound	inhibitory activity further improved, folds ([1]; relative to LP-50)	inhibitory activity as folds of that of T-20 ([1]; relative to T-20)	serum concentration as folds of the IC50 value (2 pM) ([2]; 72 hours after intravenous injection)	serum concentration as folds of the IC50 value (2 pM) ([2]; 72 hours after subcutaneous injection)	level at 72 h ([2]; iv)	level at time molar at 72 h ([2]; iv)	level at 72 h ([2]; sc)	level at time molar at 72 h ([2]; sc)	Fabs | % [3]	monkeys with viral load decreased below the detectable level line ([4]; 2 mg/kg s.c. once a day, fourth day after the treatment, six monkeys)	rebound of virus ([4]; 4th day after administration was stopped)	rebound of virus ([4]; 10th day after administration was stopped)	monkeys with viral load not detected ([4]; 14th day after the treatment)	rebound of virus ([4]; 17th day after administration was stopped)	rebound of viral load ([4]; 24th day after administration was stopped)	therapeutic effect (in words) ([4]; SHIV SF162P3 infected rhesus monkeys)	viral load during subsequent treatment ([4]; administration once per 4 days for 4 weeks)	monkeys with viral load not detected ([4]; eighth day after the treatment)
CCCCCCCCCCCCCCCC(=O)NCCCC[C@H](NC(=O)[C@H](CCC(=O)O)NC(=O)[C@H](CC(C)C)NC(=O)[C@H](CCCCN)NC(=O)[C@H](CCCCN)NC(=O)[C@H](CC(C)C)NC(=O)[C@H](CCC(=O)O)NC(=O)[C@H](CCC(=O)O)NC(=O)[C@H](CCC(=O)O)NC(=O)[C@H](CC(N)=O)NC(=O)[C@H](CCCCN)NC(=O)[C@H](CCCCN)NC(=O)[C@H](CCC(N)=O)NC(=O)[C@H](CCC(N)=O)NC(=O)[C@H](CCC(=O)O)NC(=O)[C@H](CCC(=O)O)NC(=O)[C@H](C)NC(=O)[C@H](CCCCN)NC(=O)[C@H](CCCCN)NC(=O)[C@H](CC(C)C)NC(=O)[C@H](CC(C)C)NC(=O)[C@H](CCC(=O)O)NC(=O)[C@H](CCC(=O)O)NC(=O)[C@@H](NC(=O)[C@H](CCCCN)NC(=O)[C@H](CCC(N)=O)NC(=O)[C@H](CCC(=O)O)NC(=O)[C@H](Cc1c[nH]c2ccccc12)NC(C)=O)[C@@H](C)CC)C(N)=O [LP-52] (Ac-WEQKIEELLKKAEEQQKKNEEELKKLEK(Palmitoyl)-NH2)	about 2 folds	1859 folds	–	–	–	–	–	–	–	–	–	–	–	–	–	–	–	–
CCCCCCCCCCCCCCCCCC(=O)NCCCC[C@H](NC(=O)[C@H](CCC(=O)O)NC(=O)[C@H](CC(C)C)NC(=O)[C@H](CCCCN)NC(=O)[C@H](CCCCN)NC(=O)[C@H](CC(C)C)NC(=O)[C@H](CCC(=O)O)NC(=O)[C@H](CCC(=O)O)NC(=O)[C@H](CCC(=O)O)NC(=O)[C@H](CC(N)=O)NC(=O)[C@H](CCCCN)NC(=O)[C@H](CCCCN)NC(=O)[C@H](CCC(N)=O)NC(=O)[C@H](CCC(N)=O)NC(=O)[C@H](CCC(=O)O)NC(=O)[C@H](CCC(=O)O)NC(=O)[C@H](C)NC(=O)[C@H](CCCCN)NC(=O)[C@H](CCCCN)NC(=O)[C@H](CC(C)C)NC(=O)[C@H](CC(C)C)NC(=O)[C@H](CCC(=O)O)NC(=O)[C@H](CCC(=O)O)NC(=O)[C@@H](NC(=O)[C@H](CCCCN)NC(=O)[C@H](CCC(N)=O)NC(=O)[C@H](CCC(=O)O)NC(=O)[C@H](Cc1c[nH]c2ccccc12)NC(C)=O)[C@@H](C)CC)C(N)=O [LP-80] (Ac-WEQKIEELLKKAEEQQKKNEEELKKLEK(Stearoyl)-NH2)	–	–	1010.56 folds	894.51 folds	7.75 ng/mL	2.02 nM	6.86 ng/mL	1.79 nM	39.53%	three of the six monkeys	did not rebound	one of the monkeys (monkey A)	all six monkeys	the other 5 monkeys except the monkey C	all monkeys	powerful antiviral therapeutic effect	controlled below the detectable level line	five monkeys

Reference: patent US11680086B2, “Lipopeptide for potently inhibiting HIV, derivative thereof, pharmaceutical composition thereof and use thereof” (Institute of Pathogen Biology, Chinese Academy of Medical …, priority 2017, dated 2023)
